# According to patent publication US20060069132A1, “Azolecarboxamide herbicides” (priority 2004, published 2006):
# Columns and labels:
# velvetleaf [1] = assay: Test A pre-/postemergence herbicide test; format: in vivo, Abutilon theophrasti
# In short: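 Sandy loam soil given preemergence directed spray; plants at 2 to 10 cm, one- to two-leaf stage, sprayed to runoff postemergence, compounds in non-phytotoxic solvent with surfactant. Injury rated visually versus untreated controls after about ten greenhouse days, 0 (no effect) to 100 (complete control); dash means not tested.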
# velvetleaf [2] = assay: Test B pre-/postemergence herbicide test; format: in vivo, Abutilon theophrasti
# In short: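 Herbicidal effect was judged by eye on a 0–100 scale after plants stood 13 to 15 days in the greenhouse following pre- or postemergence treatment with surfactant-containing formulations.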
# bermudagrass = assay: Test C pre-/postemergence herbicide test; format: in vivo, Cynodon dactylon; conditions: for Bermudagrass plant response rating: 500 g ai/ha
# In short: (§1)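 Preemergence: seeds planted and treated with compound in non-phytotoxic solvent with surfactant; postemergence: plants at 2 to 18 cm (1- to 4-leaf stage) sprayed likewise. Kept in greenhouse 12 to 14 days, then visually rated against controls, 0 (no effect) to 100 (complete control).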
# cocklebur = assay: Test C pre-/postemergence herbicide test; format: in vivo, Xanthium strumarium; conditions: for Cocklebur plant response rating: 500 g ai/ha
# In short: as §1
# large crabgrass = assay: Test C pre-/postemergence herbicide test; format: in vivo, Digitaria sanguinalis; conditions: for Crabgrass, Large plant response rating: 500 g ai/ha
# In short: as §1
# kochia = assay: Test C pre-/postemergence herbicide test; format: in vivo, Kochia scoparia; conditions: for Kochia plant response rating: 500 g ai/ha
# In short: as §1
# yellow nutsedge = assay: Test C pre-/postemergence herbicide test; format: in vivo, Cyperus esculentus; conditions: for Nutsedge, Yellow plant response rating: 500 g ai/ha
# In short: as §1
# soybean = assay: Test C pre-/postemergence herbicide test; format: in vivo, Glycine max; conditions: for Soybean plant response rating: 500 g ai/ha
# In short: as §1
# ducksalad = assay: Test C flooded paddy test; format: in vivo, Heteranthera limosa
# [3] = 125 g ai/ha, scale 0 (no effect) to 100 (complete control), visual, 12 to 14 days, preemergence
# [4] = 250 g ai/ha, scale 0 to 100 (0 no effect, 100 complete control), visual, 12 to 14 days, preemergence
# [5] = Postemergence, 250 g ai/ha, scale 0 to 100, 0 no effect, 100 complete control
# [6] = Preemergence, scale 0 to 100, 0 no effect, 100 complete control
# [7] = postemergence, 125 g ai/ha, scale 0 to 100
# [8] = postemergence, 62 g ai/ha, scale 0 to 100
structure (smiles),measurement,setting,value
CCOC(=O)c1cc(NC(=O)c2cc(C(C)(C)C)nn2CC)ccc1OC [Compound 96],Velvetleaf plant response rating,"velvetleaf [1]; Postemergence, 500 g ai/ha, 0 to 100 scale, 0 no effect, 100 complete control",70
same,"Plant response rating, Velvetleaf","velvetleaf [1]; Postemergence, 2000 g ai/ha, 0 to 100 scale, 0 no effect, 100 complete control",70
same,Velvetleaf plant response rating,"velvetleaf [1]; Preemergence, 500 g ai/ha, visual rating, 0 to 100 scale (0 no effect, 100 complete control)",95
same,Velvetleaf plant response rating,"velvetleaf [1]; Preemergence, 2000 g ai/ha, visual rating, 0 to 100 scale (0 no effect, 100 complete control)",100
same,"Plant response rating, Velvetleaf","velvetleaf [2]; 500 g ai/ha, visual rating 0-100, 0 no effect, 100 complete control, preemergence",90
same,"Plant response rating, Velvetleaf","velvetleaf [2]; Postemergence, 500 g ai/ha, visual rating after 13 to 15 days, scale 0 (no effect) to 100 (complete control)",80
same,Velvetleaf plant response rating,"velvetleaf [2]; postemergence, 125 g ai/ha, visual rating, scale 0 (no effect) to 100 (complete control)",70
same,"Plant response rating, Velvetleaf","velvetleaf [2]; preemergence, 125 g ai/ha, 0 to 100 scale, 0 is no effect, 100 is complete control",50
same,"Plant response rating (0 = no effect, 100 = complete control), Bermudagrass","bermudagrass; 62 g ai/ha, preemergence",40
same,"Plant response rating, Bermudagrass",bermudagrass; [3],80
same,"Plant response rating, Bermudagrass",bermudagrass; [4],85
same,Bermudagrass plant response rating,"bermudagrass; Postemergence, scale 0 to 100",5
same,"Plant response rating, Bermudagrass",bermudagrass; [5],5
same,Bermudagrass plant response rating,bermudagrass; [6],100
same,"Plant response rating, Bermudagrass",bermudagrass; [7],0
same,"Plant response rating, Bermudagrass",bermudagrass; [8],0
same,"Plant response rating (0 = no effect, 100 = complete control), Cocklebur","cocklebur; 62 g ai/ha, preemergence",0
same,"Plant response rating, Cocklebur",cocklebur; [3],5
same,"Plant response rating, Cocklebur",cocklebur; [4],20
same,Cocklebur plant response rating,"cocklebur; Postemergence, scale 0 to 100",95
same,"Plant response rating, Cocklebur",cocklebur; [5],90
same,Cocklebur plant response rating,cocklebur; [6],90
same,"Plant response rating, Cocklebur",cocklebur; [7],10
same,"Plant response rating, Cocklebur",cocklebur; [8],5
same,"Plant response rating (0 = no effect, 100 = complete control), Crabgrass, Large","large crabgrass; 62 g ai/ha, preemergence",85
same,"Plant response rating, Crabgrass, Large",large crabgrass; [3],100
same,"Plant response rating, Crabgrass, Large",large crabgrass; [4],100
same,"Crabgrass, Large plant response rating","large crabgrass; Postemergence, scale 0 to 100",5
same,"Plant response rating, Crabgrass, Large",large crabgrass; [5],5
same,"Crabgrass, Large plant response rating",large crabgrass; [6],100
same,"Plant response rating, Crabgrass, Large",large crabgrass; [7],0
same,"Plant response rating, Crabgrass, Large",large crabgrass; [8],0
same,"Plant response rating (0 = no effect, 100 = complete control), Kochia","kochia; 62 g ai/ha, preemergence",90
same,"Plant response rating, Kochia",kochia; [3],95
same,Kochia plant response rating,"kochia; Postemergence, scale 0 to 100",90
same,"Plant response rating, Kochia",kochia; [5],85
same,Kochia plant response rating,kochia; [6],100
same,"Plant response rating, Kochia",kochia; [7],80
same,"Plant response rating, Kochia",kochia; [8],80
same,"Plant response rating (0 = no effect, 100 = complete control), Nutsedge, Yellow","yellow nutsedge; 62 g ai/ha, preemergence",0
same,"Plant response rating, Nutsedge, Yellow",yellow nutsedge; [3],0
same,"Nutsedge, Yellow plant response rating","yellow nutsedge; Postemergence, scale 0 to 100",5
same,"Plant response rating, Nutsedge, Yellow",yellow nutsedge; [5],5
same,"Nutsedge, Yellow plant response rating",yellow nutsedge; [6],10
same,"Plant response rating, Nutsedge, Yellow",yellow nutsedge; [7],0
same,"Plant response rating, Nutsedge, Yellow",yellow nutsedge; [8],0
same,"Plant response rating (0 = no effect, 100 = complete control), Soybean","soybean; 62 g ai/ha, preemergence",0
same,"Plant response rating, Soybean",soybean; [3],5
same,Soybean plant response rating,"soybean; Postemergence, scale 0 to 100",100
same,"Plant response rating, Soybean",soybean; [5],100
same,Soybean plant response rating,soybean; [6],50
same,"Plant response rating, Soybean",soybean; [7],100
same,"Plant response rating, Soybean",soybean; [8],100
same,Ducksalad plant response rating,"ducksalad; 62 g ai/ha, scale 0 to 100 (0 no effect, 100 complete control)",45
same,Ducksalad plant response rating,"ducksalad; 125 g ai/ha, scale of 0 to 100, 0 is no effect, 100 is complete control",45
same,Ducksalad plant response rating,"ducksalad; 250 g ai/ha, scale of 0 to 100, 0 is no effect, 100 is complete control",75
same,"Plant response rating, Ducksalad","ducksalad; 500 g ai/ha, visual rating after 12 to 14 days, scale 0 to 100 (0 no effect, 100 complete control)",90
